Data: patent US20020051978A1, “Methods and compositions for the identification, assessment, prevention and therapy of human cancers” (priority 2000, published 2002)
Like-named read-outs stand apart in the source and are kept apart here.

Tests used:
[1] = test system: 60 cancer cell lines (NCI 60 cancer cell line series); experiment: NCI-DTP in vitro cancer screen, sulforhodamine B (SRB) growth inhibition, 48 hour exposure; format: cell-based, human; parameters: key to sensitivity class Ovarian OVCAR-8 CL6005 / sensitivity class Ovarian SK-OV-3 CL6011 / sensitivity class Prostate DU-145 CL11003 / sensitivity class NSCLC NCI-H522 CL1003 / sensitivity class Ovarian IGROV1 CL6010 / sensitivity class Ovarian OVCAR-4 CL6002 / sensitivity class Prostate PC-3(I) CL11001 / sensitivity class Renal A498 CL9013 / sensitivity class Renal SN12C CL9008: sensitivity class: 1 = Low, 2 = Medium, 3 = High
Method in brief: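 Values come from the NCI-DTP screen database: -log GI50, the concentration giving 50% growth inhibition, derived from SRB cell-mass dose-response curves. Each line seeded at its own density, treated day 1 at five ten-fold-spaced doses in duplicate wells, stained after 48 h.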

[2] = test system: 60 cancer cell lines (NCI 60 cancer cell line series); settings: cited from earlier work

O=C1c2c(O)ccc(O)c2C(=O)c2c(NCCNCCO)ccc(NCCNCCO)c21 [Mitoxantrone]
8.2: -Log (GI50) ([2]; Leukemia CCRF-CEM(I) (CL7003)) | -Log (GI50) ([2]; NSCLC NCI-H460 CL1021)
7.2: -Log (GI50) ([2]; Breast BT-549 (CL5013)) | -Log (GI50) ([2]; Breast T-47D (CL5014)) | -Log (GI50) ([2]; NSCLC NCI-H23(I) CL1001) | -Log (GI50) ([2]; Renal A498 CL9013) | -Log (GI50) ([2]; Renal RXF-393 CL9016)
6.3: -Log (GI50) ([2]; Breast MDA-MB-435 (CL5011)) | -Log (GI50) ([2]; Colon KM12 (CL4017)) | -Log (GI50) ([2]; Melanoma SK-MEL-28 (CL10008))
8.1: -Log (GI50) ([2]; Leukemia SR CL7019) | -Log (GI50) ([2]; Renal SN12C CL9008)
7.0: -Log (GI50) ([2]; Breast HS-578T CL5006) | -Log (GI50) ([2]; Colon COLO-250 CL4010)
6.4: -Log (GI50) ([2]; Melanoma SK-MEL-2 (CL10005)) | -Log (GI50) ([2]; Renal TK10 CL9024)
2: classification of cell line as Low(1), Medium(2) or High(3) sensitivity to compound ([1]; Breast BT-549 (CL5013)) | classification of cell line as Low(1), Medium(2) or High(3) sensitivity to compound ([1]; Breast HS-578T CL5006) | classification of cell line as Low(1), Medium(2) or High(3) sensitivity to compound ([1]; Breast T-47D (CL5014)) | classification of cell line as Low(1), Medium(2) or High(3) sensitivity to compound ([1]; CNS SF-268 CL12014) | classification of cell line as Low(1), Medium(2) or High(3) sensitivity to compound ([1]; CNS SF-295 CL12015) | classification of cell line as Low(1), Medium(2) or High(3) sensitivity to compound ([1]; Colon COLO-250 CL4010) | classification of cell line as Low(1), Medium(2) or High(3) sensitivity to compound ([1]; Colon HCT-116 (CL4003)) | classification of cell line as Low(1), Medium(2) or High(3) sensitivity to compound ([1]; Colon SW-620 (CL4009)) | classification of cell line as Low(1), Medium(2) or High(3) sensitivity to compound ([1]; Leukemia K562(I) CL7005) | classification of cell line as Low(1), Medium(2) or High(3) sensitivity to compound ([1]; Leukemia RPMI-8226(I) (CL7010)) | classification of cell line as Low(1), Medium(2) or High(3) sensitivity to compound ([1]; Melanoma LOX IMVI CL10001) | classification of cell line as Low(1), Medium(2) or High(3) sensitivity to compound ([1]; Melanoma M14 (CL10014)) | classification of cell line as Low(1), Medium(2) or High(3) sensitivity to compound ([1]; Melanoma MALME-3M CL10002) | classification of cell line as Low(1), Medium(2) or High(3) sensitivity to compound ([1]; Melanoma SK-MEL-5 (CL10007)) | classification of cell line as Low(1), Medium(2) or High(3) sensitivity to compound ([1]; Melanoma UACC-62 (CL10020)) | sensitivity class NSCLC NCI-H23(I) CL1001 ([1]; cell line NSCLC NCI-H23(I), CL1001) | sensitivity class NSCLC NCI-H522 CL1003 ([1]; cell line NSCLC NCI-H522, CL1003) | sensitivity class Ovarian IGROV1 CL6010 ([1]; cell line Ovarian IGROV1, CL6010) | sensitivity class Ovarian OVCAR-8 CL6005 ([1]; cell line Ovarian OVCAR-8, CL6005) | sensitivity class Ovarian SK-OV-3 CL6011 ([1]; cell line Ovarian SK-OV-3, CL6011) | sensitivity class Prostate DU-145 CL11003 ([1]; cell line Prostate DU-145, CL11003) | sensitivity class Prostate PC-3(I) CL11001 ([1]; cell line Prostate PC-3(I), CL11001) | sensitivity class Renal 786-O CL9018 ([1]; cell line Renal 786-O, CL9018) | sensitivity class Renal A498 CL9013 ([1]; cell line Renal A498, CL9013) | sensitivity class Renal RXF-393 CL9016 ([1]; cell line Renal RXF-393, CL9016)
5.4: -Log (GI50) ([2]; Breast MCF7/ADRr (CL5002))
7.3: -Log (GI50) ([2]; Colon HCT-116 (CL4003)) | -Log (GI50) ([2]; Colon SW-620 (CL4009)) | -Log (GI50) ([2]; Melanoma SK-MEL-5 (CL10007)) | -Log (GI50) ([2]; NCSLC NCI-H522 CL1003)
6.7: -Log (GI50) ([2]; Breast MDA-MB-231 CL5005) | -Log (GI50) ([2]; Leukemia RPMI-8226(I) (CL7010)) | -Log (GI50) ([2]; Ovarian IGROV1 CL6010)
6.9: -Log (GI50) ([2]; Leukemia K562(I) CL7005) | -Log (GI50) ([2]; Melanoma M14 (CL10014)) | -Log (GI50) ([2]; Melanoma MALME-3M CL10002) | -Log (GI50) ([2]; Prostate PC-3(I) CL11001)
6.6: -Log (GI50) ([2]; Breast MDA-N CL5012) | -Log (GI50) ([2]; Colon HCC-2998 (CL4002)) | -Log (GI50) ([2]; Colon HCT-15 CL4015) | -Log (GI50) ([2]; Colon HT29(I) CL4001) | -Log (GI50) ([2]; NSCLC NCI-H332M CL1017)
7.5: -Log (GI50) ([2]; CNS SF-268 CL12014) | -Log (GI50) ([2]; Prostate DU-145 CL11003)
8.3: -Log (GI50) ([2]; Leukemia MOLT-4 (CL7006))
7.9: -Log (GI50) ([2]; CNS SNB-75(I) CL12005) | -Log (GI50) ([2]; NSCLC A549/ATCC (CL1004)) | -Log (GI50) ([2]; NSCLC HOP-62 (CL1026)) | -Log (GI50) ([2]; Renal ACHN CL9023)
5.7: -Log (GI50) ([2]; Melanoma UACC-257 (CL10021))
7.7: -Log (GI50) ([2]; CNS SF-295 CL12015) | -Log (GI50) ([2]; Melanoma LOX IMVI CL10001) | -Log (GI50) ([2]; Renal 786-O CL9018)
7.8: -Log (GI50) ([2]; CNS SF-539 CL12016) | -Log (GI50) ([2]; CNS SNB-19 (CL12002)) | -Log (GI50) ([2]; NSCLC HOP-92 (CL1029)) | -Log (GI50) ([2]; NSCLC NCI-H226 CL1013)
1: classification of cell line as Low(1), Medium(2) or High(3) sensitivity to compound ([1]; Breast MCF7/ADRr (CL5002)) | classification of cell line as Low(1), Medium(2) or High(3) sensitivity to compound ([1]; Breast MDA-MB-231 CL5005) | classification of cell line as Low(1), Medium(2) or High(3) sensitivity to compound ([1]; Breast MDA-MB-435 (CL5011)) | classification of cell line as Low(1), Medium(2) or High(3) sensitivity to compound ([1]; Breast MDA-N CL5012) | classification of cell line as Low(1), Medium(2) or High(3) sensitivity to compound ([1]; Colon HCC-2998 (CL4002)) | classification of cell line as Low(1), Medium(2) or High(3) sensitivity to compound ([1]; Colon HCT-15 CL4015) | classification of cell line as Low(1), Medium(2) or High(3) sensitivity to compound ([1]; Colon HT29(I) CL4001) | classification of cell line as Low(1), Medium(2) or High(3) sensitivity to compound ([1]; Colon KM12 (CL4017)) | classification of cell line as Low(1), Medium(2) or High(3) sensitivity to compound ([1]; Melanoma SK-MEL-2 (CL10005)) | classification of cell line as Low(1), Medium(2) or High(3) sensitivity to compound ([1]; Melanoma SK-MEL-28 (CL10008)) | classification of cell line as Low(1), Medium(2) or High(3) sensitivity to compound ([1]; Melanoma UACC-257 (CL10021)) | classification of cell line as Low(1), Medium(2) or High(3) sensitivity to compound ([1]; NSCLC EKVX (CL1008)) | sensitivity class NSCLC NCI-H332M CL1017 ([1]; cell line NSCLC NCI-H332M, CL1017) | sensitivity class Ovarian OVCAR-3 CL6001 ([1]; cell line Ovarian OVCAR-3, CL6001) | sensitivity class Ovarian OVCAR-4 CL6002 ([1]; cell line Ovarian OVCAR-4, CL6002) | sensitivity class Ovarian OVCAR-5 CL6003 ([1]; cell line Ovarian OVCAR-5, CL6003) | sensitivity class Renal TK10 CL9024 ([1]; cell line Renal TK10, CL9024) | sensitivity class Renal UO-31 CL9004 ([1]; cell line Renal UO-31, CL9004)
3: classification of cell line as Low(1), Medium(2) or High(3) sensitivity to compound ([1]; Breast MCF7(I) (CL5001)) | classification of cell line as Low(1), Medium(2) or High(3) sensitivity to compound ([1]; CNS SF-539 CL12016) | classification of cell line as Low(1), Medium(2) or High(3) sensitivity to compound ([1]; CNS SNB-19 (CL12002)) | classification of cell line as Low(1), Medium(2) or High(3) sensitivity to compound ([1]; CNS SNB-75(I) CL12005) | classification of cell line as Low(1), Medium(2) or High(3) sensitivity to compound ([1]; CNS U251(I) CL12009) | classification of cell line as Low(1), Medium(2) or High(3) sensitivity to compound ([1]; Leukemia CCRF-CEM(I) (CL7003)) | classification of cell line as Low(1), Medium(2) or High(3) sensitivity to compound ([1]; Leukemia HL-60(I) (CL7008)) | classification of cell line as Low(1), Medium(2) or High(3) sensitivity to compound ([1]; Leukemia MOLT-4 (CL7006)) | classification of cell line as Low(1), Medium(2) or High(3) sensitivity to compound ([1]; Leukemia SR CL7019) | classification of cell line as Low(1), Medium(2) or High(3) sensitivity to compound ([1]; NSCLC A549/ATCC (CL1004)) | classification of cell line as Low(1), Medium(2) or High(3) sensitivity to compound ([1]; NSCLC HOP-62 (CL1026)) | classification of cell line as Low(1), Medium(2) or High(3) sensitivity to compound ([1]; NSCLC HOP-92 (CL1029)) | classification of cell line as Low(1), Medium(2) or High(3) sensitivity to compound ([1]; NSCLC NCI-H226 CL1013) | sensitivity class NSCLC NCI-H460 CL1021 ([1]; cell line NSCLC NCI-H460, CL1021) | sensitivity class Renal ACHN CL9023 ([1]; cell line Renal ACHN, CL9023) | sensitivity class Renal CAKI-1 CL9015 ([1]; cell line Renal CAKI-1, CL9015) | sensitivity class Renal SN12C CL9008 ([1]; cell line Renal SN12C, CL9008)
8.0: -Log (GI50) ([2]; CNS U251(I) CL12009) | -Log (GI50) ([2]; Leukemia HL-60(I) (CL7008)) | -Log (GI50) ([2]; Renal CAKI-1 CL9015)
8.4: -Log (GI50) ([2]; Breast MCF7(I) (CL5001))
7.4: -Log (GI50) ([2]; Melanoma UACC-62 (CL10020)) | -Log (GI50) ([2]; Ovarian OVCAR-8 CL6005) | -Log (GI50) ([2]; Ovarian SK-OV-3 CL6011)
6.5: -Log (GI50) ([2]; NSCLC EKVX (CL1008)) | -Log (GI50) ([2]; Ovarian OVCAR-3 CL6001) | -Log (GI50) ([2]; Ovarian OVCAR-4 CL6002) | -Log (GI50) ([2]; Ovarian OVCAR-5 CL6003) | -Log (GI50) ([2]; Renal UO-31 CL9004)
